Assay results: patent US20120122840A1, “COMPOUNDS AND THERAPEUTIC USES THEREOF” (Myrexis, Inc., priority 2009, published 2012)

Tested on: HCT116 colon cancer cell line
Assay: HCT116 cytotoxicity assay (WST-1, 72 hours)
Format: cell-based
Conditions: Homo sapiens, HCT-116, read-out: IC50 (concentration resulting in a 50% reduction in cell viability), HCT116 cells
Protocol: The compounds of the invention were tested in the following cytotoxicity assay to detect anti-cancer activity. This assay determined viability of various cell lines, when treated with a test compound, by determining the metabolic activity of proliferating cells using the tetrazolium salt WST. While assays conducted with HCT116 colon cancer cell line cells were generally used to compare the relative efficacy of the compounds being tested, OVCAR8 and NCI/ADR-Res cell lines were also used according to the same procedure.
MATERIALS: • A. 10% FBS/L-glutamine/NEAA/HEPES/Na-Pyruvate/RPMI, phenol-free; • B. HCT116, OVCAR8 or NCI/ADR-Res cell lines (new vial thawed every 8-10 weeks); • C. Test compounds, typically 50 mM stocks diluted in DMSO; • D. Clear, flat, TC-surface bottomed 96-well microplates (Corning #3595); • E. WST-1: Dojindo, W201 (powder).
METHODS: • 1. […]
• b) Without removing culture medium, 0.4 μl of a 250× concentrated solution of test compound in growth media was added to HCT116, OVCAR8 or NCI/ADR-Res plates. Plates were returned to incubator and left to incubate for 72 hours. • c) 10 μL of prepared WST-1 was added to treated cells and allowed to incubate at 37° C. for 90 minutes. • d) Absorbances at 490 and 650 nm were read and viability of treated cells relative to DMSO control was determined.

NCCCOc1ccc(Nc2nc(NC3CCCCC3)c3nc[nH]c3n2)cc1 [N2-[4-(3-aminopropoxy)phenyl]-N-6-cyclohexyl-9H-purine-2,6-diamine]
IC50: 1200 nM
